Drawing on BindingDB's records for PubMed 37336067 (State University of Paraiba), this text covers IC50 for 3 compounds.

The target of this assay is Glycylpeptide N-tetradecanoyltransferase 1 (Homo sapiens) (UniProt P30419). Nature of the assay: Inhibition of recombinant N-terminal his-6 tagged human NMT expressed in Escherichia coli BL21 (DE3)pLysS using peptide substrate preincubated for 5 mins followed by substrate addition and measured after 30 mins by scintillation proximity assay. In general terms: Scintillation proximity formats need no separation of bound from free tracer.
Sequence of Glycylpeptide N-tetradecanoyltransferase 1 (Homo sapiens) (P30419 whole entry, looked up): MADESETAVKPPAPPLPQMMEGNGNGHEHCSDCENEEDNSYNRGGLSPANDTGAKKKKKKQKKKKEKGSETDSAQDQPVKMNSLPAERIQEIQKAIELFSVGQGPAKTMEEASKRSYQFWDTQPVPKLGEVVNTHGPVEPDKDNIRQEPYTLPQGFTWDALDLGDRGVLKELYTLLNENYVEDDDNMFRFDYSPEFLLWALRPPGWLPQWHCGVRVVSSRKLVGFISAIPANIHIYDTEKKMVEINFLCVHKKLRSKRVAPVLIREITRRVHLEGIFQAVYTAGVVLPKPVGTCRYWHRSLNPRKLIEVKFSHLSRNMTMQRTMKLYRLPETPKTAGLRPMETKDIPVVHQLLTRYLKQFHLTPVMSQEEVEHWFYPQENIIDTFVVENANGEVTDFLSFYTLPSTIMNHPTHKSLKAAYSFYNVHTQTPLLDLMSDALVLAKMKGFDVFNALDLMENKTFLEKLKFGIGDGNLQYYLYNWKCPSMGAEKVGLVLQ

Usually IC50 stands for the concentration that inhibits the measured activity by half. Consider `O=C(Nc1nc2cc(F)ccc2s1)[C@H]1CC[C@@H](NCc2ccc3ccccc3c2)CC1`, for which the half-maximal inhibitory concentration (IC50) is 656 µM.

Regarding `O=C(Nc1nc2ccccc2s1)[C@H]1CC[C@@H](NCc2ccc3ccccc3c2)CC1`, the 50% inhibitory concentration (IC50) was 286 µM. For the compound `CN(C)C(=O)c1ccc2nc(NC(=O)[C@@H]3CCC[C@H](NCc4ccc5ccoc5c4)C3)sc2c1`, the IC50 turned out to be 656 µM.
